In patent US8546590B2, “Polar dyes” (Cepheid, priority 2005, dated 2013):

Columns and labels:
[1] = Degradation/deprotection of arsonate ester-protected dye in 25% aqueous ammonia (Method G, HPLC); format: physicochemical
Procedure: (§1) Measuring of Degradation/Deprotection Rate of Arsonate Esters-protected Dye.
(§2) A protected dye (1 mg) and Methyl Red dye (0.5 mg, internal standard, λmax 482 nm) were dissolved in MeOH (5 mL) and mixed with a buffer or 25% aqueous ammonia (45 mL). Samples (1 mL) were taken over a period of degradation. The samples were quickly placed under vacuum to remove ammonia and redissolved in MeOH or used directly for HPLC analysis in buffers in a range of pH 1.6 (0.1% trifluoroacetic acid)-7.5 (0.1 M triethylammonium acetate). HPLC analysis was performed on Phenomenex Gemini 5 um C18 110A column (250×4.6 mm) using 0-100% gradient of MeCN in 0.1M triethylammonium acetate (pH 7.5) buffer. The chromatogram was detected in a range 200-600 nm using Varian ProStar PDA detector. Calculations of the relative concentrations were performed based on peaks area at 520 nm. An internal standard gives a peak at 8.6 min (λmax 482 nm).
FIG. 12 illustrates an example of a typical kinetic curve corresponding to the base-induced deprotection of a bis-pinacol protected azodye.

[2] = Degradation/deprotection of arsonate ester-protected dye in aqueous buffers (Method G, HPLC); format: physicochemical; details: for stability in aqueous buffers: range of pH 1.6-7.5 in aqueous buffers
Procedure: as §1, §2

[3] = 25% aqueous ammonia, room temperature

SMILES | stability / degradation in 25% aqueous ammonia ([1]; 25% aqueous ammonia) | Rate of degradation (τ1/2) [1, 3] | stability in aqueous buffers [2] | Rate of full degradation (τ1/2) [1, 3] | time after which practically full deprotection was observed [1, 3] | degradation in acidic conditions ([2]; acidic conditions, aqueous buffers) | time after which practically full deprotection was observed ([2]; buffer, room temperature, pH 7.5) | degradation at pH 7.5 ([2]; pH 7.5 aqueous buffer) | Rate of full degradation (τ1/2) ([2]; room temperature and pH 7.5 buffer) | degradation of the compound observed ([1]; over 3 days period, 25% aqueous ammonia at room temperature (and pH 1.6-7.5 buffers))
CN(C)c1ccc(N=Nc2ccc([As]34(OC(C)(C)C(C)(C)O3)OC(C)(C)C(C)(C)O4)cc2)cc1 [Example 11, [4-(4′-Dimethylaminophenylazo)phenyl]arsonic acid bis-pinacolate] | degrades | approximately 3 hr | stable |  |  |  |  |  |  | 
CN(C)c1ccc(N=Nc2ccc([As]3(=O)OC(C)(C)CC(C)(C)O3)cc2)cc1 [Example 12, [4-(4′-Dimethylaminophenylazo)phenyl]arsonic acid 2,4-dimethyl-2,4-pentanediol chelate] | degrades quickly |  | relatively stable | approximately 15 min | 4 h |  |  |  |  | 
CN(C)c1ccc(N=Nc2ccc([As]3(=O)OC(=O)C(C)(C)O3)cc2)cc1 (stereo not drawn) [Example 13, [4-(4′-Dimethylaminophenylazo)phenyl]arsonic acid, chelate with 2-hydroxy-isobutyric acid] |  |  | very unstable |  |  | degrades instantly | 2 h | within minutes | approximately 10 min | 
CN(C)c1ccc(N=Nc2ccc([As]34(Oc5ccccc5O3)Oc3ccccc3O4)cc2)cc1 [Example 14, [4-(4′-Dimethylaminophenylazo)phenyl]arsonic acid bis-catechol chelate] | very stable |  | very stable |  |  |  |  |  |  | No degradation
